From PubChem BioAssay (NCI)
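Each compound was tested at five concentrations against cells in 96-well plates for 48 hours. Abbreviation: GI50, concentration required for 50% inhibition of growth. Definition used: TGI = concentration required for complete inhibition of growth.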

Legend:
Assay in all cases: NCI anticancer screen, dose series, 48 h
A498 renal = system: A498 renal
CCRF-CEM leukemia = system: CCRF-CEM leukemia
HL-60(TB) leukemia = system: HL-60(TB) leukemia
MALME-3M melanoma = system: MALME-3M melanoma
MDA-MB-435 = system: MDA-MB-435
NCI-H522 lung = system: NCI-H522 lung
RPMI-8226 leukemia = system: RPMI-8226 leukemia
RXF 393 renal = system: RXF 393 renal
SK-MEL-5 melanoma = system: SK-MEL-5 melanoma
TK-10 renal = system: TK-10 renal

Structure (SMILES)	TGI (A498 renal) [µM]	TGI (CCRF-CEM leukemia) [µM]	TGI (HL-60(TB) leukemia) [µM]	TGI (MALME-3M melanoma) [µM]	TGI (MDA-MB-435) [µM]	TGI (NCI-H522 lung) [µM]	TGI (RPMI-8226 leukemia) [µM]	TGI (RXF 393 renal) [µM]	TGI (SK-MEL-5 melanoma) [µM]	TGI (TK-10 renal) [µM]	GI50 (A498 renal) [µM]	GI50 (HL-60(TB) leukemia) [µM]	GI50 (MALME-3M melanoma) [µM]	GI50 (MDA-MB-435) [µM]	GI50 (NCI-H522 lung) [µM]	GI50 (RPMI-8226 leukemia) [µM]	GI50 (RXF 393 renal) [µM]	GI50 (TK-10 renal) [µM]	GI50 (CCRF-CEM leukemia) [µM]	GI50 (SK-MEL-5 melanoma) [µM]
COc1ccc2c(=O)c3ccoc3n(CC=C(C)C)c2c1	> 100	> 100	> 96.6	18.7	> 100	> 33.2	> 100	> 81.1	> 69.3	> 100	–	–	–	–	–	–	–	–	–	–
COC1CC2CCC(C)C(O)(O2)C(=O)C(=O)N2CCCCC2C(=O)OC(C(C)CC2CCC(O)C(OC)C2)CC(=O)C(C)C=C(C)C(O)C(OC)C(=O)C(C)CC(C)/C=C/C=C/C=C1C (stereo not drawn)	6.86	–	23.6	8.36	14.9	11.3	19.3	7.48	9.24	19.7	< 0.005	10.2	< 0.005	0.838	1.99	0.0903	< 0.005	5.62	–	–
CC[C@H](Nc1nc(NCc2cnc(C)cc2C)c2ncn(C(C)C)c2n1)[C@@H](C)O	0.391	> 100	0.744	4.22	10.8	1.31	14.2	0.389	0.498	> 100	0.167	0.27	1.18	0.362	0.262	0.308	0.179	0.625	0.326	0.219
CC1=C2C[C@H]3[C@@H](CC[C@@H]4CC(NS(C)(=O)=O)CC[C@@]43C)[C@@H]2CC[C@@]2(C1)O[C@@H]1C[C@H](C)CN[C@H]1[C@H]2C (stereo partly drawn)	26.8	28.4	21.4	25.2	22.8	29	29.5	15.6	5.63	24.4	13.2	6.12	9.75	8.1	14.3	7.62	3.65	11.3	7.71	2.18
O=c1c2ccccc2n(C[C@H]2CO2)c2ccccc12	6.57	21.7	3.29	3.19	3.24	3.74	6.55	2.82	2.9	6.77	2.62	1.28	1.65	1.61	1.61	1.94	1.39	2.34	0.771	1.52
C/C(=N/Nc1nc2ccccc2n1C)c1ccccn1	0.81	–	0.391	16.7	20.7	9.34	15.3	3.24	3.96	32.6	0.123	0.0177	0.148	0.229	0.223	0.0398	0.169	0.44	0.0252	0.162
O=c1ccn(C2OC(CO/N=C/c3ccc(O)c(O)c3O)C(O)C2O)c(=O)[nH]1 (stereo not drawn)	39.2	–	68.1	> 100	31.3	> 100	> 100	73.9	33.5	> 100	15.4	26.9	10.1	15.8	50.6	49.5	23	> 100	–	19.4
O=C(Nc1cccc(Cl)c1)c1ccc(NC2=C(Cl)C(=O)N(Cc3ccccc3)C2=O)cc1	96.2	1.44	15.2	78.5	33.6	> 44.6	–	24.7	19.4	49.5	34.4	3.79	24	9.43	5.6	–	9.55	16.4	0.436	7.81
O=C(CNc1ccc2c(c1)C(=O)c1ccccc1C2=O)Nc1ccc2c(c1)C(=O)c1ccccc1C2=O	3.16	–	4.35	2.36	2.29	0.318	3.46	2.04	0.669	3.17	1.62	1.57	0.739	0.85	0.153	0.957	0.687	1.7	–	0.25
O=C(c1ccco1)c1nc2cc(Cl)ccc2[n+]([O-])c1C(F)(F)F	> 100	0.443	46.8	> 100	> 100	> 100	44	59.2	49.6	> 100	> 100	24.3	47.9	> 100	45.1	10.8	19.5	44.1	0.0182	20.3
O=C1/C(=C/c2ccccc2)CN(C(=O)c2cccnc2)C/C1=C\c1ccccc1	5.42	6.05	11.5	18.9	2.15	3.66	1.44	3.3	3.68	13.4	2.19	2.34	4.78	0.483	1.57	0.318	1.72	3.57	0.558	1.8
Cc1ccccc1N=Nc1ccc(NC(=O)c2ccnn2C)c(C)c1	42.6	> 100	–	> 100	> 100	> 100	> 100	47.2	72.2	> 100	13.2	–	14.5	54.9	30	3.41	18.5	20.5	43.3	4.99
COc1cc(-c2nn(-c3cccc(NC(=O)Nc4cc(C(F)(F)F)cc(C(F)(F)F)c4)c3)cc2-c2ccncc2)ccc1Cl	2.13	2.79	11.9	2	1.85	1.43	7.74	2.15	1.3	2.46	0.587	0.551	0.677	0.772	0.356	0.203	0.841	0.719	0.498	0.629
